Test results taken from ChEMBL document CHEMBL1201862, “PubChem BioAssay data set” (2004).
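These data come from cells grown in 96-well plates and exposed to compound for 48 hours at five concentrations. GI50 marks 50% less growth.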 The source made the active and inactive calls. Cut-off read from the data, not from the text of the source: active = GI50 up to about 1.1 µM and inactive = higher.

Key:
Assay in all cases: NCI anticancer screen, dose series, 48 h
786-0 = system: 786-0
A498 = system: A498
A549 = system: A549
ACHN = system: ACHN
BT-549 = system: BT-549
CAKI-1 = system: CAKI-1
CCRF-CEM = system: CCRF-CEM
COLO 205 = system: COLO 205
EKVX = system: EKVX
HCC 2998 = system: HCC 2998
HCT-116 = system: HCT-116
HCT-15 = system: HCT-15
HL-60 = system: HL-60
HOP-62 = system: HOP-62
HOP-92 = system: HOP-92
HT-29 = system: HT-29
Hs-578T = system: Hs-578T
IGROV-1 = system: IGROV-1
KM12 = system: KM12
LOX IMVI = system: LOX IMVI
M14 = system: M14
MCF7 = system: MCF7
MDA-MB-231 = system: MDA-MB-231
MDA-MB-435 = system: MDA-MB-435
MDA-N = system: MDA-N
MOLT-4 = system: MOLT-4
Malme-3M = system: Malme-3M
NCI-H226 = system: NCI-H226
NCI-H460 = system: NCI-H460
NCI-H522 = system: NCI-H522
NCI/ADR-RES = system: NCI/ADR-RES
OVCAR-4 = system: OVCAR-4
OVCAR-5 = system: OVCAR-5
OVCAR-8 = system: OVCAR-8
PC-3 = system: PC-3
RPMI-8226 = system: RPMI-8226
RXF 393 = system: RXF 393
SF-268 = system: SF-268
SF-295 = system: SF-295
SF-539 = system: SF-539
SK-MEL-28 = system: SK-MEL-28
SK-MEL-2 = system: SK-MEL-2
SK-MEL-5 = system: SK-MEL-5
SK-OV-3 = system: SK-OV-3
SN12C = system: SN12C
SNB-19 = system: SNB-19
SNB-75 = system: SNB-75
SW-620 = system: SW-620
TK-10 = system: TK-10
U-251 = system: U-251
UACC-257 = system: UACC-257
UACC-62 = system: UACC-62
DU-145 = system: DU-145
K562 = system: K562
NCI-H23 = system: NCI-H23
OVCAR-3 = system: OVCAR-3
SR = system: SR
UO-31 = system: UO-31

Measured: GI50

COc1ccc(-c2c(C#N)c(O)n(NS(=O)(=O)c3ccc(C)cc3)c(=O)c2C#N)cc1
inactive: 786-0 67.1 µM | A498 57.1 µM | A549 91.8 µM | ACHN 47.9 µM | BT-549 54.8 µM | CAKI-1 > 100 µM | CCRF-CEM 33.4 µM | COLO 205 > 100 µM | EKVX 70.8 µM | HCC 2998 45.9 µM | HCT-116 56 µM | HL-60 37.1 µM | HOP-62 99.3 µM | HOP-92 4.71 µM | HT-29 > 100 µM | Hs-578T > 100 µM | IGROV-1 35.8 µM | KM12 > 100 µM | LOX IMVI 45.4 µM | M14 > 100 µM | MCF7 48.6 µM | MDA-MB-231 > 100 µM | MDA-MB-435 75 µM | MDA-N 77.8 µM | MOLT-4 20.5 µM | Malme-3M 70.6 µM | NCI-H226 > 100 µM | NCI-H460 46.2 µM | NCI-H522 13.8 µM | NCI/ADR-RES 61.9 µM | OVCAR-4 81.5 µM | OVCAR-5 > 100 µM | OVCAR-8 70 µM | PC-3 71.4 µM | RPMI-8226 19.5 µM | RXF 393 66.5 µM | SF-268 > 100 µM | SF-295 75 µM | SF-539 67.8 µM | SK-MEL-28 82.8 µM | SK-MEL-2 > 100 µM | SK-MEL-5 42.1 µM | SK-OV-3 > 100 µM | SN12C > 100 µM | SNB-19 83.2 µM | SNB-75 > 100 µM | SW-620 57.4 µM | TK-10 79.3 µM | U-251 67.8 µM | UACC-257 > 100 µM | UACC-62 81.7 µM
49.1 µM: HCT-15

COc1ccc(CNc2nc3cc(N)cc(N)c3nc2-c2ccccc2)cc1
inactive: RPMI-8226 4.13 µM

CCOC(=O)[C@@H]1OC(c2ccccc2)O[C@H]1C(=O)OCC
inactive: 786-0 > 100 µM | A498 > 100 µM | A549 > 100 µM | ACHN > 100 µM | CCRF-CEM > 100 µM | COLO 205 > 100 µM | DU-145 > 100 µM | EKVX > 100 µM | HCT-116 > 100 µM | HOP-62 > 100 µM | HOP-92 > 100 µM | HT-29 > 100 µM | Hs-578T > 100 µM | IGROV-1 > 100 µM | K562 > 100 µM | KM12 > 100 µM | LOX IMVI > 100 µM | M14 > 100 µM | MCF7 > 100 µM | MDA-MB-231 > 100 µM | MDA-MB-435 > 100 µM | MDA-N > 100 µM | MOLT-4 > 100 µM | Malme-3M > 100 µM | NCI-H226 > 100 µM | NCI-H23 > 100 µM | NCI/ADR-RES > 100 µM | OVCAR-3 > 100 µM | OVCAR-4 > 100 µM | OVCAR-5 > 100 µM | OVCAR-8 > 100 µM | PC-3 > 100 µM | RPMI-8226 > 100 µM | SF-268 > 100 µM | SF-295 > 100 µM | SK-MEL-28 > 100 µM | SK-MEL-2 > 100 µM | SK-MEL-5 > 100 µM | SK-OV-3 > 100 µM | SN12C > 100 µM | SNB-19 > 100 µM | SNB-75 > 100 µM | SR > 100 µM | SW-620 > 100 µM | TK-10 > 100 µM | U-251 > 100 µM | UACC-257 > 100 µM | UACC-62 > 100 µM | UO-31 > 100 µM
> 100 µM: HCT-15

CC(C)(C)/N=c1/n(C(C)(C)C)oc(=O)n1C(C)(C)C
inactive: 786-0 > 100 µM | A498 > 100 µM | A549 > 100 µM | ACHN > 100 µM | BT-549 > 100 µM | CAKI-1 > 100 µM | CCRF-CEM > 100 µM | COLO 205 > 100 µM | EKVX > 100 µM | HCC 2998 > 100 µM | HCT-116 > 100 µM | HL-60 > 100 µM | HOP-62 > 100 µM | HOP-92 > 100 µM | HT-29 > 100 µM | Hs-578T > 100 µM | IGROV-1 > 100 µM | K562 > 100 µM | KM12 > 100 µM | LOX IMVI > 100 µM | M14 > 100 µM | MCF7 > 100 µM | MDA-MB-231 > 100 µM | MDA-N > 100 µM | MOLT-4 > 100 µM | Malme-3M > 100 µM | NCI-H226 > 100 µM | NCI-H23 81.1 µM | NCI-H460 > 100 µM | NCI/ADR-RES > 100 µM | OVCAR-3 > 100 µM | OVCAR-4 > 100 µM | OVCAR-5 > 100 µM | OVCAR-8 > 100 µM | PC-3 > 100 µM | RXF 393 > 100 µM | SF-295 > 100 µM | SF-539 > 100 µM | SK-MEL-28 > 100 µM | SK-MEL-2 > 100 µM | SK-MEL-5 > 100 µM | SK-OV-3 > 100 µM | SN12C > 100 µM | SNB-19 > 100 µM | SNB-75 99.5 µM | SR > 100 µM | SW-620 > 100 µM | TK-10 > 100 µM | U-251 > 100 µM | UACC-257 > 100 µM | UACC-62 > 100 µM | UO-31 > 100 µM
> 100 µM: HCT-15

C[C@]12CC/C(=N\O)C=C1CC[C@@H]1[C@@H]2CC[C@]2(C)C(=N/O)/C(=C/c3cccnc3)C[C@@H]12
inactive: 786-0 28.4 µM | A498 14.5 µM | A549 13.1 µM | ACHN 16.8 µM | BT-549 12.6 µM | CCRF-CEM 7.38 µM | COLO 205 17.2 µM | DU-145 21.8 µM | EKVX 18.4 µM | HCT-116 17.5 µM | HOP-62 18.7 µM | HOP-92 12.8 µM | HT-29 19 µM | Hs-578T 3.63 µM | IGROV-1 30.4 µM | K562 6.98 µM | KM12 6.98 µM | LOX IMVI 4.76 µM | M14 16.5 µM | MCF7 6.97 µM | MDA-MB-231 17.7 µM | MDA-MB-435 15.9 µM | MDA-N 12.5 µM | Malme-3M 17.8 µM | NCI-H226 3.63 µM | NCI-H23 32.6 µM | NCI-H460 3.46 µM | NCI-H522 12.1 µM | NCI/ADR-RES 14.3 µM | OVCAR-4 18.1 µM | OVCAR-5 24.2 µM | OVCAR-8 15.4 µM | PC-3 6.95 µM | RPMI-8226 1.74 µM | SF-295 6.95 µM | SF-539 25.2 µM | SK-MEL-28 16.9 µM | SK-MEL-2 19.8 µM | SK-OV-3 39.1 µM | SN12C 12.2 µM | SNB-19 23.4 µM | SW-620 31.8 µM | TK-10 15.1 µM | U-251 22.6 µM | UACC-257 17.9 µM | UACC-62 3.3 µM | UO-31 4.9 µM
active: HL-60 0.338 µM | MOLT-4 0.546 µM
5.9 µM: HCT-15
